In US20100022483A1, “Substituted Tetracycline Compounds” (Paratek Pharmaceuticals, Inc., priority 2008, published 2010):
Values after ≈ are worked out from the molar mass of the structure shown. Like-named read-outs stand apart in the source and are kept apart here.

Tests used:
[1] = system: gram positive bacteria; experiment: In vitro anti-bacterial activity assay (broth dilution MIC), gram positive bacteria; type: cell-based, S. aureus; details: 18 h
Procedure, shortened: (§1)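 Broth dilution MIC following CLSI M7-A2: compounds serially diluted, log-phase test strains added to final ~5×10^5 CFU/ml, incubated ~18 hours at 35° C in ambient air. Plates read on microplate reader or visually; MIC is lowest concentration inhibiting growth.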

[2] = system: gram negative bacteria; experiment: In vitro anti-bacterial activity assay (broth dilution MIC), gram negative bacteria; type: cell-based, E. coli
Procedure, shortened: as §1

[3] = Mammalian cytotoxicity assay (resazurin), COS-1 cells; type: cell-based; details: African green monkey, read-out: Cytotox. COS-1
Procedure, shortened: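 Cells seeded overnight at 37° C., 5% CO2, then exposed to serial compound dilutions for 24 hours. Medium replaced with resazurin (0.042 mg/ml in PBS with Ca and Mg) for 2 hours plus 30 minutes dark at room temperature; fluorescence read at ex 535/em 590 nm, IC50 taken as 50% growth inhibition.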

[4] = in vitro; type: cell-based; details: Chinese hamster, Cytotox. CHO-K1
[5] = system: 3T3 fibroblast cells; experiment: In vitro phototoxicity assay (neutral red; UV light-treated vs dark control plates); type: cell-based; details: for Photo Toxicity UV Tox50: UV light 50 minutes; for Photo Toxicity Dark Tox50: dark control plate
Procedure, shortened: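 Neutral red viability readout (A535 after EtOH/acetic acid extraction) compares paired plates: one exposed 50 min to UV at 1.6–1.8 mW/cm^2, one held in darkness, both dosed with compound in HBSS and recovered overnight. 3T3 fibroblast cells used; phototoxicity taken as the difference.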

[6] = Staphylococcus aureus, S. aureus MRSA5, read-out: Median MIC's G+ S. aureus MRSA5
[7] = Staphylococcus aureus, S. aureus RN450, read-out: Median MIC's G+ S. aureus RN450
[8] = Streptococcus pneumoniae, S. pneumoniae 157E-Strep, read-out: Median MIC's G+ S. pneumoniae 157E-Strep
[9] = Escherichia coli, 18 h, E. coli D1 209, read-out: Median MIC's G− E. coli D1 209
[10] = Escherichia coli, 18 h, E. coli MG 1655, read-out: Median MIC's G− E. coli MG 1655
[11] = Escherichia coli, ATCC25922, 18 h, E. coli ATCC 25922, read-out: Median MIC's G− E. coli ATCC 25922
[12] = Pseudomonas aeruginosa, 18 h, P. aeruginosa K201 PAO6609, read-out: Median MIC's G− P. aeruginosa K201 PAO6609

| Compound | MIC [1, 6] | MIC [1, 7] | MIC [1, 8] | MIC [2, 9] | MIC [2, 10] | MIC [2, 11] | MIC [2, 12] | IC50 at 24 h [3] | IC50 at 24 h [4] | Photo Toxicity UV Tox50 [5] | Photo Toxicity Dark Tox50 [5] |
| --- | --- | --- | --- | --- | --- | --- | --- | --- | --- | --- | --- |
| C=CCNCC(=O)c1ccc(O)c2c1C[C@H]1C[C@H]3[C@H](N(C)C)C(O)=C(C(N)=O)C(=O)[C@@]3(O)C(O)=C1C2=O [BV] | 32 µg/mL (≈ 62.6 µM) | 4 µg/mL (≈ 7.82 µM) | 1 µg/mL (≈ 1.95 µM) | 64 µg/mL (≈ 125 µM) | 16 µg/mL (≈ 31.3 µM) | 32 µg/mL (≈ 62.6 µM) | 64 µg/mL (≈ 125 µM) | > 122 µM | 27.6 µM | >121.69 µM | >121.69 µM |
| COCC(=O)c1ccc(O)c2c1C[C@H]1C[C@H]3[C@H](N(C)C)C(O)=C(C(N)=O)C(=O)[C@@]3(O)C(O)=C1C2=O [BW] | 1 µg/mL (≈ 2.06 µM) | 0.06 µg/mL (≈ 0.123 µM) | 0.06 µg/mL (≈ 0.123 µM) | 64 µg/mL (≈ 132 µM) | 0.5 µg/mL (≈ 1.03 µM) | 0.5 µg/mL (≈ 1.03 µM) | 32 µg/mL (≈ 65.8 µM) | > 53.4 µM | > 53.4 µM | >172.1 µM | >172.1 µM |
| CC(C)N1CCN(CC(=O)c2ccc(O)c3c2C[C@H]2C[C@H]4[C@H](N(C)C)C(O)=C(C(N)=O)C(=O)[C@@]4(O)C(O)=C2C3=O)CC1 [BX] | 4 µg/mL (≈ 6.87 µM) | 1 µg/mL (≈ 1.72 µM) | 0.5 µg/mL (≈ 0.858 µM) | 64 µg/mL (≈ 110 µM) | 8 µg/mL (≈ 13.7 µM) | 8 µg/mL (≈ 13.7 µM) | 64 µg/mL (≈ 110 µM) | > 130 µM | > 130 µM | >130.05 µM | >130.05 µM |
| CN(C)[C@@H]1C(O)=C(C(N)=O)C(=O)[C@@]2(O)C(O)=C3C(=O)c4c(O)ccc(C(=O)CNCc5ccccn5)c4C[C@H]3C[C@@H]12 [BY] | 32 µg/mL (≈ 56.9 µM) | 2 µg/mL (≈ 3.56 µM) | 4 µg/mL (≈ 7.11 µM) | 64 µg/mL (≈ 114 µM) | 64 µg/mL (≈ 114 µM) | 64 µg/mL (≈ 114 µM) | 64 µg/mL (≈ 114 µM) | > 13.4 µM | > 13.4 µM | >133.75 µM | >133.75 µM |
| CN(C)[C@@H]1C(O)=C(C(N)=O)C(=O)[C@@]2(O)C(O)=C3C(=O)c4c(O)ccc(C(=O)CNCC(N)=O)c4C[C@H]3C[C@@H]12 [BZ] | 64 µg/mL (≈ 121 µM) | 4 µg/mL (≈ 7.57 µM) | 4 µg/mL (≈ 7.57 µM) | 64 µg/mL (≈ 121 µM) | 64 µg/mL (≈ 121 µM) | 64 µg/mL (≈ 121 µM) | 64 µg/mL (≈ 121 µM) | > 119 µM | > 119 µM | >118.96 µM | >118.96 µM |
| COC(C)CNCC(=O)c1ccc(O)c2c1C[C@H]1C[C@H]3[C@H](N(C)C)C(O)=C(C(N)=O)C(=O)[C@@]3(O)C(O)=C1C2=O (stereo partly drawn) [CA] | 32 µg/mL (≈ 58.9 µM) | 4 µg/mL (≈ 7.36 µM) | 2 µg/mL (≈ 3.68 µM) | 64 µg/mL (≈ 118 µM) | 32 µg/mL (≈ 58.9 µM) | 32 µg/mL (≈ 58.9 µM) | 64 µg/mL (≈ 118 µM) | > 146 µM | > 146 µM | >145.98 µM | >145.98 µM |
| CN(C)[C@@H]1C(O)=C(C(N)=O)C(=O)[C@@]2(O)C(O)=C3C(=O)c4c(O)ccc(C(=O)CNc5cccnc5)c4C[C@H]3C[C@@H]12 [CB] | 64 µg/mL (≈ 117 µM) | 16 µg/mL (≈ 29.2 µM) | 32 µg/mL (≈ 58.3 µM) | 64 µg/mL (≈ 117 µM) | 64 µg/mL (≈ 117 µM) | 64 µg/mL (≈ 117 µM) | 64 µg/mL (≈ 117 µM) | > 153 µM | 110 µM | >152.86 µM | >152.86 µM |
| CN(C)[C@@H]1C(O)=C(C(N)=O)C(=O)[C@@]2(O)C(O)=C3C(=O)c4c(O)ccc(C(=O)CNCc5ccco5)c4C[C@H]3C[C@@H]12 [CC] | 16 µg/mL (≈ 29 µM) | 1 µg/mL (≈ 1.81 µM) | 2 µg/mL (≈ 3.63 µM) | 64 µg/mL (≈ 116 µM) | 32 µg/mL (≈ 58 µM) | 32 µg/mL (≈ 58 µM) | 64 µg/mL (≈ 116 µM) | > 44.7 µM | > 44.7 µM | >144.12 µM | >144.12 µM |
| CN(C)c1cc(-c2cccc(C(N)=O)c2)c(O)c2c1C[C@H]1C[C@H]3[C@H](N(C)C)C(O)=C(C(N)=O)C(=O)[C@@]3(O)C(O)=C1C2=O [CD] | 32 µg/mL (≈ 55.5 µM) | 8 µg/mL (≈ 13.9 µM) | 16 µg/mL (≈ 27.7 µM) | 64 µg/mL (≈ 111 µM) | 64 µg/mL (≈ 111 µM) | 64 µg/mL (≈ 111 µM) | 64 µg/mL (≈ 111 µM) | > 45.3 µM | > 45.3 µM | >146.26 µM | >146.26 µM |
| CN(C)[C@@H]1C(O)=C(C(N)=O)C(=O)[C@@]2(O)C(O)=C3C(=O)c4c(O)ccc(C(=O)CNCc5cccn5C)c4C[C@H]3C[C@@H]12 [CE] | 4 µg/mL (≈ 7.08 µM) | 0.25 µg/mL (≈ 0.443 µM) | 0.5 µg/mL (≈ 0.886 µM) | 64 µg/mL (≈ 113 µM) | 4 µg/mL (≈ 7.08 µM) | 4 µg/mL (≈ 7.08 µM) | 64 µg/mL (≈ 113 µM) | > 41.4 µM | > 41.4 µM | >133.53 µM | >133.53 µM |
| CN(C)[C@@H]1C(O)=C(C(N)=O)C(=O)[C@@]2(O)C(O)=C3C(=O)c4c(O)ccc(C(=O)Cn5ccnc5)c4C[C@H]3C[C@@H]12 [CF] | 64 µg/mL (≈ 122 µM) | 4 µg/mL (≈ 7.66 µM) | 4 µg/mL (≈ 7.66 µM) | 64 µg/mL (≈ 122 µM) | 64 µg/mL (≈ 122 µM) | 64 µg/mL (≈ 122 µM) | 64 µg/mL (≈ 122 µM) | > 49.9 µM | > 49.9 µM | >161.01 µM | >161.01 µM |
| CC(=O)NCCC(=O)c1ccc(O)c2c1C[C@H]1C[C@H]3[C@H](N(C)C)C(O)=C(C(N)=O)C(=O)[C@@]3(O)C(O)=C1C2=O [CI] | 64 µg/mL (≈ 121 µM) | 2 µg/mL (≈ 3.79 µM) | 2 µg/mL (≈ 3.79 µM) | 64 µg/mL (≈ 121 µM) | 64 µg/mL (≈ 121 µM) | 64 µg/mL (≈ 121 µM) | 64 µg/mL (≈ 121 µM) | > 160 µM | > 160 µM | >159.57 µM | >159.57 µM |
| CN(C)CC/C(=N\OC(C)(C)C)c1ccc(O)c2c1C[C@H]1C[C@H]3[C@H](N(C)C)C(O)=C(C(N)=O)C(=O)[C@@]3(O)C(O)=C1C2=O [CJ] | 2 µg/mL (≈ 3.42 µM) | 0.06 µg/mL (≈ 0.103 µM) | 0.06 µg/mL (≈ 0.103 µM) | 1 µg/mL (≈ 1.71 µM) | 2 µg/mL (≈ 3.42 µM) | 0.5 µg/mL (≈ 0.855 µM) | 64 µg/mL (≈ 109 µM) | 82.2 µM | 34.6 µM | 62.89 µM | >136.86 µM |
| CN(C)[C@@H]1C(O)=C(C(N)=O)C(=O)[C@@]2(O)C(O)=C3C(=O)c4c(O)ccc(-c5cccc(C(=O)NCCO)c5)c4C[C@H]3C[C@@H]12 [CK] | 8 µg/mL (≈ 13.9 µM) | 0.125 µg/mL (≈ 0.216 µM) | 0.125 µg/mL (≈ 0.216 µM) | 64 µg/mL (≈ 111 µM) | 64 µg/mL (≈ 111 µM) | 64 µg/mL (≈ 111 µM) | 64 µg/mL (≈ 111 µM) | > 14.7 µM | > 14.7 µM | >146.56 µM | >146.58 µM |
| CN(C)CCCCNC(=O)c1cccc(-c2ccc(O)c3c2C[C@H]2C[C@H]4[C@H](N(C)C)C(O)=C(C(N)=O)C(=O)[C@@]4(O)C(O)=C2C3=O)c1 [CL] | 64 µg/mL (≈ 101 µM) | 4 µg/mL (≈ 6.32 µM) | 4 µg/mL (≈ 6.32 µM) | 64 µg/mL (≈ 101 µM) | 64 µg/mL (≈ 101 µM) | 64 µg/mL (≈ 101 µM) | 64 µg/mL (≈ 101 µM) | > 41.7 µM | > 41.7 µM | >134.63 µM | >134.63 µM |
| CN(C)[C@@H]1C(O)=C(C(N)=O)C(=O)[C@@]2(O)C(O)=C3C(=O)c4c(O)ccc(-c5cccc(CCCO)c5)c4C[C@H]3C[C@@H]12 [CM] | 0.5 µg/mL (≈ 0.911 µM) | 0.0625 µg/mL (≈ 0.114 µM) | 0.06 µg/mL (≈ 0.109 µM) | 64 µg/mL (≈ 117 µM) | 64 µg/mL (≈ 117 µM) | 64 µg/mL (≈ 117 µM) | 64 µg/mL (≈ 117 µM) | 15.1 µM | 14.1 µM | >167.5 µM | >167.5 µM |
| CN(C)CCCCNCc1ccc(O)c2c1C[C@H]1C[C@H]3[C@H](N(C)C)C(O)=C(C(N)=O)C(=O)[C@@]3(O)C(O)=C1C2=O [CN, (4S,4aS,5aR,12aS)-4-Dimethylamino-7-[(4-dimethylamino-butylamino)-methyl]-3,10,12,12a-tetrahydroxy-1,11-dioxo-1,4,4a,5,5a,6,11,12a-octahydro-naphthacene-2-carboxylic acid amide] | 64 µg/mL (≈ 118 µM) | 16 µg/mL (≈ 29.5 µM) | 32 µg/mL (≈ 59 µM) | 64 µg/mL (≈ 118 µM) | 32 µg/mL (≈ 59 µM) | 32 µg/mL (≈ 59 µM) | 64 µg/mL (≈ 118 µM) | > 138 µM | > 138 µM | >138.03 µM | >138.03 µM |
| CN(C)[C@@H]1C(O)=C(C(N)=O)C(=O)[C@@]2(O)C(O)=C3C(=O)c4c(O)ccc(-c5cccc(/C=C/C#N)c5)c4C[C@H]3C[C@@H]12 [CO] | 0.5 µg/mL (≈ 0.923 µM) | 0.0625 µg/mL (≈ 0.115 µM) | 0.06 µg/mL (≈ 0.111 µM) | 64 µg/mL (≈ 118 µM) | 64 µg/mL (≈ 118 µM) | 64 µg/mL (≈ 118 µM) | 64 µg/mL (≈ 118 µM) | 7.77 µM | 9.41 µM | >164.35 µM | >164.35 µM |
